Experimental findings from ChEMBL document CHEMBL5325418, “Studies on diketopiperazine and dipeptide analogs as opioid receptor ligands” (Eur J Med Chem, 2023) are described below.

For data set [1], the system named is Rattus norvegicus. Put plainly: Effect on emotional-affective response in spinal nerve ligation neuropathic pain rat model assessed as reduction in audible vocalizations at 3 mg/kg, ip measured at 1 hr by preamplifier based analysis. The format is functional, organism-based.
Data set [2] in a line: Plasma protein binding in rat assessed as bound fraction at 1 uM by LC-MS/MS analysis. It is filed as ADME, cell-free.
Data set [3] addresses Kappa-type opioid receptor (Homo sapiens, UniProt P41145). In words: Displacement of [3H]U69593 from human KOR expressed in HEK cell membranes assessed as inhibition constant incubated for 60 mins by microbeta 2 scintillation counting method. Further details: species or system Cell membrane. (Loss of bound radioactivity is the signal in a displacement assay; it reports binding, not function.)

For data set [4], the system named is Rattus norvegicus. In words: Antiallodynic activity against spinal nerve ligation neuropathic pain rat model assessed as reduction in mechanical hypersensitivity at 3 mg/kg, ip measured at 1 hr by von frey test. It is filed as functional, organism-based.
A short description of data set [5]: Metabolic stability in human plasma assessed as half life at 100 uM measured upto 24 hrs by LC-MS/MS analysis. The format is ADME, cell-free.
The nature of data set [6]: Metabolic stability in CD-1 mouse plasma assessed as half life at 100 uM measured upto 24 hrs by LC-MS/MS analysis. The format is ADME, cell-free.
The species named for data set [7] is Homo sapiens. Put plainly: Selectivity ratio of Ki for displacement of [3H]DAMGO from human MOR expressed in CHO cell membranes to Ki for displacement of [3H]U69593 from human KOR expressed in HEK cell membranes.
Data set [8] is described as follows: Metabolic stability in Sprague-Dawley rat liver microsomes assessed as intrinsic clearance at 100 uM measured upto 24 hrs in presence of NADPH by LC-MS/MS analysis. The format is ADME, Microsome. (In general: Liver microsomes are vesicles of endoplasmic reticulum, rich in cytochrome P450 enzymes.)
Data set [9] can be described thus: In vivo inhibition of U50488-induced activation of KOR in C57BL/6 mouse assessed as reduction of occupancy on cold plate at 1 mg/kg, ip pre-treated with U50488 followed compound addition measured after 1 hr by TPPT assay (reference value: 67.28 +/- 10.8% ). The format is functional.
In data set [10] the test system is Rattus norvegicus. Put plainly: Effect on emotional-affective response in spinal nerve ligation neuropathic pain rat model assessed as reduction in ultrasonic vocalizations at 3 mg/kg, ip measured at 1 hr by preamplifier based analysis. It is filed as functional, organism-based.
A further data set concerns the target Mu-type opioid receptor (Homo sapiens, UniProt P35372). In words: Displacement of [3H]DAMGO from human MOR expressed in CHO cell membranes assessed as inhibition constant incubated for 60 mins by microbeta 2 scintillation counting method. Further details: species or system Cell membrane.
Data set [11] in a line: Plasma protein binding in mouse assessed as bound fraction at 1 uM by LC-MS/MS analysis. It is filed as ADME, cell-free.
Data set [12] is described as follows: Plasma protein binding in human assessed as bound fraction at 1 uM by LC-MS/MS analysis. The format is ADME, cell-free.
Data set [13] can be described thus: Metabolic stability in Beagle dog plasma assessed as half life at 100 uM measured upto 24 hrs by LC-MS/MS analysis. The format is ADME, cell-free, Canis lupus familiaris. Conditions: Beagle.
The next data set deals with BEND3. Put plainly: Apparent permeability coefficient of the compound across blood brain barrier in mouse BEND3 cells at 10 ug/ml measured upto 120 mins by LC-MS/MS analysis. Conditions: dose 10.0 µg/ml. It is filed as functional, cell-based.
Data set [14] in a line: Plasma protein binding in dog assessed as bound fraction at 1 uM by LC-MS/MS analysis. It is filed as ADME, cell-free, Canis lupus familiaris.
Data set [15] addresses Delta-type opioid receptor (Homo sapiens, UniProt P41143). Put plainly: Displacement of [3H]DADLE from human DOR expressed in CHO cell membranes assessed as inhibition constant incubated for 60 mins by microbeta 2 scintillation counting method. Further details: species or system Cell membrane.
Data set [16] can be described thus: Metabolic stability in Sprague-Dawley rat plasma assessed as half life at 100 uM measured upto 24 hrs by LC-MS/MS analysis. It is filed as ADME, cell-free.
For data set [17], the species on record is Homo sapiens. In words: Selectivity ratio of Ki for displacement of [3H]DADLE from human DOR expressed in CHO cell membranes to Ki for displacement of [3H]U69593 from human KOR expressed in HEK cell membranes.

Calls of active or inactive are those of the source. The rule behind the calls is not given here.

Chain of Delta-type opioid receptor (P41143 whole entry): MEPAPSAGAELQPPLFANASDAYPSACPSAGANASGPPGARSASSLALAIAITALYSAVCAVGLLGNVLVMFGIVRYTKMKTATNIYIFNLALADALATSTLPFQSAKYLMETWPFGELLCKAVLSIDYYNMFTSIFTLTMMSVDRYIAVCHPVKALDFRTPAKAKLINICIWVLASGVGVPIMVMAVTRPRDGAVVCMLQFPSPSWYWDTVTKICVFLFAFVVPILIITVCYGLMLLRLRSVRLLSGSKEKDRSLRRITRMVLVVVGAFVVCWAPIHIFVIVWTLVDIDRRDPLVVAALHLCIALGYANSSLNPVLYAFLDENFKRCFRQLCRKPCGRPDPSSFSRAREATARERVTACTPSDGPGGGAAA
Chain of Kappa-type opioid receptor (P41145 whole entry): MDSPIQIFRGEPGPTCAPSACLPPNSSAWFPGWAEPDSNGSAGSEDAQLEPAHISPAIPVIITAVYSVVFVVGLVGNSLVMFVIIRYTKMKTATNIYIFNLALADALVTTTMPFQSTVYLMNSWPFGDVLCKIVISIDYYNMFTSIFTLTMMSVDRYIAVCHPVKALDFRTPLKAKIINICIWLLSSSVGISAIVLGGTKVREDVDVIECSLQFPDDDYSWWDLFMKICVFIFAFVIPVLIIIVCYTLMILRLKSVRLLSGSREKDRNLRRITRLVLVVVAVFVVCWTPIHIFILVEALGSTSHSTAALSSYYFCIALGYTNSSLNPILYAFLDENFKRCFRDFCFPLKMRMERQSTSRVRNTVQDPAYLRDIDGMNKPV
Chain of Mu-type opioid receptor (P35372 whole entry): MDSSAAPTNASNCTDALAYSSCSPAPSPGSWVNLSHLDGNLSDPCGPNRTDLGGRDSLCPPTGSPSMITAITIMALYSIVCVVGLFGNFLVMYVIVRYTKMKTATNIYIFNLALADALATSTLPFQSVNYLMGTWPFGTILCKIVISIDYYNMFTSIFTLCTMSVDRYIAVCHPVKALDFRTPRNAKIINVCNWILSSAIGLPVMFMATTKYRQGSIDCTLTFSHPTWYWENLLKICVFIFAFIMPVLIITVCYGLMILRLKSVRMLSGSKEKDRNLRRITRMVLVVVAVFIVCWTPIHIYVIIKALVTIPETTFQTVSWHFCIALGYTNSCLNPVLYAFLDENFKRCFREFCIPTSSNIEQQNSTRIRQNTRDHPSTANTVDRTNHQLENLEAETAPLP

Regarding `COc1cccc(CC2NC(=O)CN(Cc3ccccc3)C2=O)c1I` (stereo unspecified), the result with Rattus norvegicus [1], in the data set with Rattus norvegicus [4] and in the data set with Rattus norvegicus [10] was Active. Also, the PPB in [2] is on record as 91.24%; in [11], 85.15%; in data set [12] it was 91.42%; in data set [14] it was 86.15%. Moreover, the Ki (in general, a measure of affinity in units of concentration, obtained from inhibition or displacement) is 0.924 µM in data set [3], over 10 µM at Mu-type opioid receptor and over 10 µM in data set [15]. Besides, the half-life at 100 µM in data set [5], in data set [6], in data set [13] and in data set [16] was over 24 h in each case. Further, the Ratio Ki in the data set listed under Homo sapiens [7] and in the data set listed under Homo sapiens [17] was over 11 throughout. In addition, in data set [8], the Intrinsic clearance was 381.8 µL/min/mg. Besides, the inhibition in vivo (as a rule, the drop in the measured response relative to a control, in per cent) at 1 mg/kg in [9] was 10.3%. Also, the Pe with BEND3 was 5.07 10^-3cm/min.

`NCC1(CC(=O)O)CCCCC1`: the outcome with Rattus norvegicus [1] and with Rattus norvegicus [10] was Active.

Turning to `COc1cccc(CC2NC(=O)CN(Cc3ccccc3)C2=O)c1C` (stereo unspecified), the PPB was determined as 76.34% in data set [2], 86.29% in [11], 80.46% in data set [12] and 86.67% in data set [14]. For the same molecule, the Ki in [3] was 0.6 µM; on Mu-type opioid receptor, over 10 µM; in [15], over 10 µM. The half-life at 100 µM in data set [5], in [6], in data set [13] and in data set [16] was over 24 h throughout. For the same molecule, the Ratio Ki in the data set filed under Homo sapiens [7] and in the data set filed under Homo sapiens [17] was over 17 each time. For the same molecule, the Intrinsic clearance in data set [8] was 337.2 µL/min/mg. In the data set on BEND3, the Pe was 5.99 10^-3cm/min.

Turning to `COc1cc(CC2NC(=O)CN(Cc3ccccc3)C2=O)c(I)c(OC)c1` (stereo unspecified), the PPB in data set [2] came out at 93.99%; in data set [11] it was 91.69%; in [12] it was 95.95%; in data set [14], 89.68%. Moreover, the values for the Ki (in data set [3]; on Mu-type opioid receptor; in data set [15]) were 0.51 µM, over 10 µM and over 10 µM, respectively. Moreover, the half-life at 100 µM in data set [5], in [6], in data set [13] and in data set [16] was over 24 h in each case. Further, the Ratio Ki in the data set listed under Homo sapiens [7] and in the data set listed under Homo sapiens [17] was over 20 throughout. In addition, in [8], the Intrinsic clearance worked out at 390.5 µL/min/mg. Besides, the Pe with BEND3 is 9.68 10^-3cm/min.
